Data on 2 compounds can be found in patent US12522610B2 (priority 2018, dated 2026).

≈ marks a conversion by molar mass, not a printed value. Where two headings read alike, the source gives them in different places.

One data set can be described thus: physchem. The note with it: 55 °C, aqueous with cosolvent or surfactant or cyclodextrin, thermodynamic from solid.
For data set [1] the following is noted: salt forms; dissolution medium, 55° C. water bath, 60 rpm; Table 4.

A word on the solubility: it is the concentration that dissolves in the medium under given conditions.

In turn, `COC12CC[C@@]3(C[C@@H]1[C@](C)(O)C(C)(C)C)C1Cc4ccc(O)c5c4[C@@]3(CCN1CC1CC1)[C@H]2O5` [Buprenorphine free base] gave a solubility in “physchem” of 1180 µg/mL (≈ 2510 µM).
Consider “Buprenorphine acetate-hydrochloride salt”, for which the “solubility” value in data set [1] stood at 1716 µg/mL.
